# Measurements taken from paper PMC11872507, “Lasso peptides sviceucin and siamycin I exhibit anti-virulence activity and restore vancomycin effectiveness in vancomycin-resistant pathogens” (iScience, 2025).
# Positions of bridges follow the written chain, without caps; N, C: chain ends. Residues, ends and D or L forms follow the SMILES beside them. No end group written: not given here.
# Tests used:
# [1] = system: E. faecalis V583; assay: microbe, parasite or virus in culture; type: cell-based, Enterococcus faecalis; conditions: peptide alone, without vancomycin; VanB
# [2] = system: E. faecalis JH2-2 08048; assay: microbe, parasite or virus in culture; type: cell-based, Enterococcus faecalis; conditions: peptide alone, without vancomycin; VanB
# Experimental: (§1) The MIC of vancomycin was determined by the microdilution method described in the guidelines of the European Committee on Antimicrobial Susceptibility Testing (EUCAST 2024, v14.0 Breakpoint Tables).[58] For enterococci, GM17 medium was used instead of CAMH medium since enterococci cannot degrade starch, the main carbohydrate of MH medium. 2-fold serial dilutions of the tested antibiotic were performed to obtain concentrations ranging from 0.5 to 512 μg/mL. LP were then added to the wells at the desired concentration. The medium was inoculated with a final inoculum of 5 × 10^5 CFU/mL. The MIC is the lowest concentration that prevents visible in vitro growth.
# [3] = system: E. faecalis merz96; assay: microbe, parasite or virus in culture; type: cell-based, Enterococcus faecalis; conditions: peptide alone, without vancomycin; VanB
# [4] = system: E. faecium 1 231 410; assay: microbe, parasite or virus in culture; type: cell-based, Enterococcus faecium; conditions: peptide alone, without vancomycin; VanA
# [5] = system: E. faecalis HIP11704; assay: microbe, parasite or virus in culture; type: cell-based, Enterococcus faecalis; conditions: peptide alone, without vancomycin; VanA
# [6] = system: E. faecium 1 231 502; assay: microbe, parasite or virus in culture; type: cell-based, Enterococcus faecium; conditions: peptide alone, without vancomycin; VanA
# [7] = system: E. faecium 1 230 933; assay: microbe, parasite or virus in culture; type: cell-based, Enterococcus faecium; conditions: peptide alone, without vancomycin; VanA
# [8] = system: S. aureus T-SAR12 VRSA.A; assay: microbe, parasite or virus in culture; type: cell-based, Staphylococcus aureus; conditions: peptide alone, without vancomycin; VanA
# Experimental: as §1
# [9] = system: S. aureus T-SAR12 VRSA.B; assay: microbe, parasite or virus in culture; type: cell-based, Staphylococcus aureus; conditions: peptide alone, without vancomycin; VanB
# Experimental: as §1
# [10] = system: E. faecalis V583 ΔvanB; assay: microbe, parasite or virus in culture; type: cell-based, Enterococcus faecalis; conditions: peptide alone, without vancomycin; van-
# [11] = system: S. aureus 16038 (VISA); assay: microbe, parasite or virus in culture; type: cell-based, Staphylococcus aureus; conditions: peptide alone, without vancomycin; van-
# [12] = molecular target: T1, VanS^127-384 (Enterococcus faecium, UniProt Q06240); assay: biochemical; type: binding
# T1 construct: only the C-terminal His6-tagged VanA-type VanS^127-384 could be obtained as a soluble protein; made in house; host or cells: E. coli BL21(DE3), plasmid pET29b(+) vanS^127-384
# [13] = system: Galleria mellonella larvae; assay: Toxicity toward larvae; type: in vivo; conditions: siamycin I-loaded nanoemulsion, about 18 mg/kg, 90 min and 24 h, observed to 96 h
# Experimental: Larvae were infected with the wild-type strain E. faecalis V583, the isogenic vancomycin-sensitive mutant V583 ΔvanB, or an equivalent volume of saline solution. At t90min and t24h post-infection (p.i.), the larvae were treated with the nanoemulsion alone (referred to as formulation), the nanoemulsion loaded with siamycin I (3.92 μg/larvae; about 18 mg/kg), vancomycin (1 μg/larvae; about 4.6 mg/kg) alone, or a combination of both. Larvae survival was assessed, and statistical analysis was performed at the endpoint t96h.
# To assess the C1LPs' efficacy as treatment of E. faecalis infection, the strains V583 or V583 ΔvanB were grown without previous C1LP exposition. 20 larvae were used for each condition. At 1.5 and 24 h p.i., larvae were injected with 4.76 mg of vancomycin per kilogram and/or 18 mg of siamycin I per kilogram, or the equivalent volume of nanoemulsion as a control. Larvae killing was then monitored between 1.5 and 96 h p.i.. Data and statistical analysis were performed using the Kaplan-Meier R package and the log -rank test, respectively.
# [14] = system: all tested E. faecalis and E. faecium strains; assay: Growth inhibition / MIC, strain panel; type: cell-based; conditions: peptide alone
# [15] = system: VanB- or VanA-type strains; conditions: same among the different VanB- or VanA-type strains
# Experimental: as §1
# [16] = molecular target: T2, VanS^127-384 (VanA-type, C-His6) (Enterococcus faecium, UniProt Q06240); assay: biochemical
# T2 construct: only the C-terminal His6-tagged VanA-type VanS^127-384 could be obtained as a soluble protein; made in house; host or cells: E. coli BL21(DE3), plasmid pET29b(+) vanS^127-384
# Experimental: (§2) Terrific medium[68] […] The culture was incubated at 37°C with agitation at 180 rpm. Induction of protein expression was achieved by adding IPTG to a final concentration of 0.1 mM when the bacterial density reached an OD600 of 0.5. The culture was then incubated for 20 h at 25°C with agitation at 180 rpm. The cells were then washed twice in purification buffer (20 mM sodium phosphate buffer, 500 mM NaCl, 5 mM MgCl2, 10 mM imidazole (pH 7.4)). Cells were treated with lysozyme at 1 mg/mL final concentration for 30 min at 4°C and lysed by sonication with the Fisherbrand Model 120 Sonic Dismembrator (Fisher scientific, USA). The total fraction recovered was centrifuged at 10000 rpm at 4°C for 30 to 45 min and only the supernatant, representing the soluble fraction, was recovered for purification.
# (§3) Protein purification was carried out on a HisTrap FF Crude 5 mL column (Cytiva, USA) using the ÄKTA start device (Cytiva, USA), following the manufacturer’s recommendations. […] Protein concentration was determined with the Pierce BCA Protein Assay Kit (Thermo Scientific, USA) according to the manufacturer’s recommendations and then stored at −80°C.
# (§4) The phosphorylation assay followed reported procedure with some modifications.[38] […] The reaction was allowed to start by adding ATP and NADH, and monitored continuously at 340 nm at 37°C by a microplate reader (POLARstar OMEGA, BMG Labtech, Germany). […]
# [17] = molecular target: T3, VanS^127-384 (VanA-type, C-His6) (Enterococcus faecium, UniProt Q06240); assay: biochemical; conditions: 0–100 μM peptide
# T3 construct: only the C-terminal His6-tagged VanA-type VanS^127-384 could be obtained as a soluble protein; made in house; host or cells: E. coli BL21(DE3), plasmid pET29b(+) vanS^127-384
# T3 sequence (Q06240 whole entry, looked up): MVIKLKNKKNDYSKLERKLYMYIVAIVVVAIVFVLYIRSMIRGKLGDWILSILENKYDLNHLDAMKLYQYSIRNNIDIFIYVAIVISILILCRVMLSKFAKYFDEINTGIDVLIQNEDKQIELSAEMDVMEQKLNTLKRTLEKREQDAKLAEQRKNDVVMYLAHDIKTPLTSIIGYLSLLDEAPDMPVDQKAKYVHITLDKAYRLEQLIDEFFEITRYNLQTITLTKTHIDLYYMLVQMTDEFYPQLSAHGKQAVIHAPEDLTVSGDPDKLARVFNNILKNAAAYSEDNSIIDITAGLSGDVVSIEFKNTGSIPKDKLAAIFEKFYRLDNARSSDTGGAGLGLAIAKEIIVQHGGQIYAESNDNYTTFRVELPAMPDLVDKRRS
# Experimental: as §2, §3, §4
# [18] = molecular target: T4, VanS^127-384 (Enterococcus faecium, UniProt Q06240); assay: biochemical; type: binding; conditions: 10 μM VanS, pH 7.5; siamycin I 6 to 90 μM; sviceucin 12 to 180 μM; microcin J25 25 to 200 μM
# T4 construct: only the C-terminal His6-tagged VanA-type VanS^127-384 could be obtained as a soluble protein; made in house; host or cells: E. coli BL21(DE3), plasmid pET29b(+) vanS^127-384
# T4 sequence (Q06240 whole entry, looked up): T3 sequence (Q06240 whole entry, looked up)
# Experimental: Protein purification was carried out on a HisTrap FF Crude 5 mL column (Cytiva, USA) using the ÄKTA start device (Cytiva, USA), following the manufacturer’s recommendations. The column was equilibrated with the purification buffer and then loaded with the soluble fraction. The protein of interest was washed and eluted with an imidazole gradient of 10 mM–500 mM in purification buffer. The purified protein was desalted and concentrated on a Vivaspin 6 30 kDa MWCO column (Cytiva, USA) according to the manufacturer’s recommendations. Protein concentration was determined with the Pierce BCA Protein Assay Kit (Thermo Scientific, USA) according to the manufacturer’s recommendations and then stored at −80°C.
# All the experiments were performed in 96 Fast PCR Plates full skirt (Sarstedt, Germany) and in CFX96 Real-Time PCR system (BioRad, USA). Screening was conducted (Table S7) to determine the best buffer and ratios of protein and SYPRO Orange Protein Gel Stain (Sigma-Aldrich, USA). […] The Tm of each well was determined on the Melt Curve panel with a negative peak type. Tm means were calculated for each condition before model analysis. ΔT was calculated from the subtraction of the Tm of the protein with the buffer alone and the Tm with the lasso peptides. […]
Molecule,Lasso peptide MIC [1] [µM],Lasso peptide MIC [2] [µM],Lasso peptide MIC [3] [µM],Lasso peptide MIC [4] [µM],Lasso peptide MIC [5] [µM],Lasso peptide MIC [6] [µM],Lasso peptide MIC [7] [µM],Lasso peptide MIC [8] [µM],Lasso peptide MIC [9] [µM],Lasso peptide MIC [10] [µM],Lasso peptide MIC [11] [µM],Kd [12] [µM],toxicity toward the larvae [13],"MIC, complete growth inhibition [14]",MIC of peptide in absence of vancomycin [15] [µM],IC50 [16] [µM],"effect on VanS^127-384 autophosphorylation, in words [17]","effect on melting temperature (Tm) of VanS^127-384, in words [18]"
"CC[C@H](C)[C@@H]1NC(=O)[C@H](C)NC(=O)[C@H](Cc2ccc(O)cc2)NC(=O)CNC(=O)[C@@H]2CSSC[C@@H]3NC(=O)C[C@H](NC(=O)[C@H](CC(N)=O)NC(=O)[C@H](CSSC[C@@H](C(=O)N[C@@H](Cc4ccccc4)C(=O)N[C@@H](Cc4c[nH]c5ccccc45)C(=O)O)NC(=O)[C@H](C(C)C)NC1=O)NC(=O)[C@H](CO)NC(=O)CNC(=O)[C@H](C(C)C)NC(=O)CNC(=O)[C@H](CC(C)C)NC3=O)C(=O)N[C@@H](Cc1ccccc1)C(=O)N[C@@H](C)C(=O)NCC(=O)N2 [Siamycin I] (CLGVGSCNDFAGCGYAIVCFW-OH; disulfide 1-13, 7-19; lactam N-9)",5,5,5,5,5,5,5,5,5,5,5,38 ± 1,did not exhibit toxicity toward the larvae,5 µM,5,,,
"CC[C@H](C)[C@@H]1NC(=O)[C@H](Cc2c[nH]c3ccccc23)NC(=O)[C@H](C)NC(=O)[C@H]([C@@H](C)O)NC(=O)CNC(=O)[C@@H]2CSSC[C@@H]3NC(=O)C[C@H](NC(=O)[C@H]([C@@H](C)O)NC(=O)[C@H](CSSC[C@@H](C(=O)N[C@H](C(=O)O)C(C)C)NC1=O)NC(=O)[C@H](CC(=O)O)NC(=O)CNC(=O)CNC(=O)[C@H](Cc1c[nH]c4ccccc14)NC(=O)[C@H](C(C)C)NC3=O)C(=O)N[C@@H](Cc1ccccc1)C(=O)N[C@@H](CC(C)C)C(=O)NCC(=O)N2 [Sviceucin] (CVWGGDCTDFLGCGTAWICV-OH; disulfide 1-13, 7-19; lactam N-9)",>10,>10,>10,>10,>10,>10,>10,>10,>10,>10,>10,52 ± 1.6,,above 10 μM,> 10,10.8 ± 1.5,,
Microcin J25: unrelated lasso peptide microcin J25 (GGAGHVPEYFVGIGTPISFYG; not fully specified),,,,,,,,,,,,,,,,,had no effect on VanS^127-384,did not affect the Tm of VanS^127-384
